Measured values reported in patent US9726659B2, “CMPF as a biomarker for diabetes and associated methods” (The Governing Council of the University of Toronto, priority 2012, dated 2017).

Experiments:
CD1 mouse islets = test: GSIS and insulin content of CMPF-treated islets with OAT inhibitors; format: cell-based
Text: A) Microarray analysis of human islets showing expression of OAT transporters and beta-cell genes (n=3). Validation of OAT expression in human islets by (b) RT-PCR, (c) western blot, and (d) immunofluorescent staining with insulin (n=3-5). Human kidney samples are from the HK2 human proximal tubule cell line. GSIS from murine islets co-treated with OAT inhibitors (e) Probenecid, (f) benzylpenicillin (PCG) and (g) p-aminohippurate (PAH) (n=4/group). h) Total insulin content from murine islets co-treated with CMPF and PCG (n=4). Values mean+/−SEM. Student's t-test (a, e-h). *P<0.05, **P<0.01, ***P<0.001.
To determine if the OAT transporters are responsible for CMPF transport into beta cells, CD1 mouse islets were pre-treated 1 mM Probenecid prior to the addition of CMPF to ensure blockage of the channels and complete exclusion of CMPF from the cells. A dosage of 1 mM Probenecid was selected based on previous evidence that this concentration was sufficient to inhibit anion transport from beta cells without any observed effect on glucose-stimulated insulin secretion (Arkhammar et al. 1989). Islets were pre-treated with 1 mM Probenecid for 3 hours prior to the addition of 200 uM CMPF. After 24 hours cells were assessed by GSIS. Treatment with 200 uM CMPF alone produced a significant decrease in GSIS under both high glucose and KCl-stimulated conditions, consistent with previous findings, while treatment with 1 mM Probenecid for 27 hours had no effect on GSIS compared to vehicle controls. […] Therefore, probenecid inhibits the effect of CMPF. Similar results were obtained using the OAT3-specific inhibitor PCG. Islets were again pre-treated for 3 hours with 300 uM PCG prior to 24-hour 200 uM CMPF treatment (FIG. 14B).
To determine if OATs are responsible for CMPF transport into beta-cells, we utilized inhibitors of OAT function. Probenecid is a non-specific OAT-blocker (Miyamoto et al., 2012). Treatment of islets with 1 mM probenecid for 24 hrs rescued insulin secretion from CMPF-treated islets to control levels (FIG. 19e). To determine which OAT is primarily responsible for CMPF transport into beta-cells, we treated islets with 300 μM of benzylpenicillin (PCG), an OAT3-specific inhibitor, or 50 μM of paminohippurate (PAH), an OAT1-specific inhibitor (Deguchi et al., 2005). Consistent with previous reports that OAT3 is the dominant CMPF transporter (Deguchi et al., 2005), PCG was able to rescue insulin secretion and insulin content from CMPF-treated islets to control levels (FIG. 19f,h). However, treatment with PAH had no effect on secretion (FIG. 19g). Therefore, CMPF is transported into the beta-cell through OAT3, and blockage of this transporter prevents CMPF from impairing GSIS and insulin biosynthesis.

OAT3 = target: T1, OAT3 (Rattus norvegicus, UniProt Q9R1U7); conditions: concentrations of PCG that selectively inhibit OAT3; cited from earlier work
T1 construct: host or cells: kidney (in vivo, per the cited study)
T1 sequence (Q9R1U7 1-536): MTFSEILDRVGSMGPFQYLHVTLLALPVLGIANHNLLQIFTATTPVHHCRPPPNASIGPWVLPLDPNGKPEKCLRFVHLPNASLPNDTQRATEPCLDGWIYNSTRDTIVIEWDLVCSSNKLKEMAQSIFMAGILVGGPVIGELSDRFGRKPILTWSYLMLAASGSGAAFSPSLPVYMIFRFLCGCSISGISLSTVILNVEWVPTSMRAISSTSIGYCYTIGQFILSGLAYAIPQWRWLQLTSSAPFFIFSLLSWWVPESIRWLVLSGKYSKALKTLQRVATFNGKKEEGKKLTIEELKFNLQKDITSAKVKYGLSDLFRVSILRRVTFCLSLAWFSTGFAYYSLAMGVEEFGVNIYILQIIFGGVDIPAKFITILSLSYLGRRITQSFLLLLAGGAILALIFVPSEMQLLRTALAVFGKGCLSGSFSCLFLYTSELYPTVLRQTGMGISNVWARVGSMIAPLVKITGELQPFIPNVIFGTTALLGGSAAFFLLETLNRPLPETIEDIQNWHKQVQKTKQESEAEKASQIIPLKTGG

[1] = tested on: dispersed CD1 mouse islet cells; test: Immunofluorescent staining of FOXO1 and PDX1 localization; format: cell-based; conditions: treatment with NAC
Experimental: The cellular localization of FOXO1 and PDX1 were determined in dispersed CD1 mouse islet cells using immunofluorescence. The presence of the organic anion transporters (OATs) were determined in dispersed human islet cells also using immunofluorescence. Staining was performed as previously described (Diao et al., 2008). Images were acquired using a confocal microscope (Quorum Wave FX Spinning Disc; Perkin Elmer, Waltham M L, USA) and Volocity software (Perkin Elmer).
To determine the mechanism through which CMPF decreases insulin biosynthesis we examined its effect on these key regulators. Under normal conditions, AKT and GSK3β have reciprocal activities. Active pAKT phosphorylates and inactivates GSK3β, preventing phosphorylation of downstream targets (Humphrey et al., 2010). […] FOXO1 is normally sequestered in the cytosol due to phosphorylation by AKT (Kitamura et al., 2005). […] Altered activity of these transcription factors is further confirmed by decreased mRNA levels of key target genes including Inst, transcription factors Pdx1 and Mafa, proinsulin processing enzymes CpE, Pc1 and Pc2, and the glucose transporter Glut2 (Boucher et al., 2006; Kaneto et al. 2008) (FIG. 18a).

primary murine islets = test: Glucose- and KCl-stimulated insulin secretion in primary murine islets; format: cell-based; conditions: co-treatment with 500 μM NAC, 24 hr
Experimental: LG=2.8 mM glucose, HG=16.7 mM glucose, KCl=16.7 mM glucose+30 mM KCl. *p<0.05.
Since beta cell failure is a major underlying cause of both GDM and T2D, the effect of increased CMPF on beta cell function was investigated both in vitro and in vivo. Using physiological concentrations of CMPF (20 uM and 200 uM, as observed in our NGT-pregnant and GDM-pregnant samples respectively (FIG. 2)), as well as a vehicle control (EtOH), its effect was studied on glucose-stimulated insulin secretion (GSIS) and insulin secretion in response to direct depolarization using the secretagogue KCl in an immortalized murine beta cell line (MIN6), as well as primary isolated human and murine islets (FIG. 3A). […] Therefore, high physiologically relevant levels of CMPF impair GSIS.

mouse islets = test: ROS accumulation in isolated islets (mitoSOX red, CM-H2-DCFDA); format: cell-based; conditions: co-treatment with 500 μM NAC, 24 hr
Experimental: A) Proinsulin in the media of 24 hr treated islets (n=4/group). B) Mitochondrial membrane potential (MMP) following acute addition of vehicle control or 200 μM of CMPF (N=3/group). C) ROS levels in 4- and 24-hour treated mouse islets with representative images (N=10-15 islets/mouse from 4 mice/group). D) Expression of antioxidant genes Cat and (e) Ucp2 (n=4/group). F) ROS accumulation in 24 hr-treated islets treated with 500 μM NAC (n=10 islets/mouse from 4 mice/group). G) GSIS and (h) total insulin content from 24 hr-treated islets co-treated with 500 μM NAC (n=4/group). Western blots showing (i) Ser9 phosphorylation of GSK3β, (j) Ser473 phosphorylation of AKT (n=3/group). K) Immunofluorescent staining showing nuclear translocation of FOXO1 and (l) PDX1 with CMPF and NAC treatment (n=3-6). Quantification of nuclear percentage of (m) FOXO1 and (n) PDX1 based on immunofluorescent staining with CMPF and NAC treatment. O) Western blots showing protein abundance of PDX1 and FOXO1. Values are mean+/−SEM. Student's t-test (a, c-j, m-o), one-way ANOVA (b). *P<0.05, **P<0.01, ***P<0.001.
The level of superoxide and H2O2 were determined using mitoSOX red and 2′,7′-dichlorodihydro fluorescein diacetate (CM-H2-DCFDA) respectively (Molecular Probes, Invitrogen, Canada) in isolated islets treated with either vehicle control or 200 μM CMPF for 4 or 24 hours, as previously described (Lee et al. 2009). […]

murine islets = test: Total insulin content in murine islets; format: cell-based; conditions: co-treatment with 500 μM NAC, 24 hr
Experimental: Murine islets were treated for 24 hrs with vehicle control (0 CMPF), 20 uM (20 CMPF), or 200 uM (200 CMPF) CMPF, and assessed for total insulin content and mRNA expression. […] Decreased expression of insulin processing enzymes PCSK1, 2 and CpE (F), (G), (H) indicate that CMPF may also impair post-translational insulin processing. Finally, CMPF causes decreased expression of the beta cell glucose transporter GLUT2, and GCK, the rate-limiting enzyme critical for glucose metabolism (I) and (J), perhaps impairing glucose sensing and metabolism. In all cases n=4, *P<0.05.
In the absence of apoptosis and necrosis, CMPF must be impairing GSIS by causing beta cell dysfunction. First, the effect of CMPF treatment on insulin biosynthesis was investigated to determine if insulin is available to be released upon stimulation. MIN6, murine and human islets were treated with vehicle control, 20 uM and 200 uM CMPF for 4 hrs (MIN6) or 24 hrs (islets), and total insulin content measured. […] Lower total insulin content may be due to either defective insulin processing from proinsulin to mature insulin, or insufficient insulin transcription. To determine the mechanism through which CMPF is reducing total insulin content, quantitative PCR (qPCR) was performed on RNA that was isolated from murine islets treated with either vehicle control or 200 uM CMPF for 24 hrs.

MIN6 cells = test: Annexin V and propidium iodide staining for apoptosis and necrosis; format: cell-based, murine; conditions: 5 mM, 3 hrs
Experimental: A) MIN6 cells were treated for 4 hrs with 0 uM (EtOH vehicle control), 20 uM or 200 uM CMPF prior to being loaded with Annexin V and propidium iodide fluorescent dyes, and counterstained with Hoechst dye. […] B) Primary CD1 islets were dispersed and treated with vehicle control (0 CMPF, black), 20 uM CMPF (grey), or 200 uM CMPF (white) for 48 hours, then stained with Annexin V, Propidium Iodide and Hoechst dye. Quantification of double positive staining was assessed by an Arrayscan VTI HCS reader.
Next the mechanism underlying the observed impairment in GSIS following treatment with CMPF was investigated. To determine whether CMPF was inhibiting GSIS by inducing beta cell apoptosis, Annexin V and Propidium Iodide staining was performed in MIN6 cells treated with vehicle (EtOH), 20 uM or 200 uM CMPF for 4 hrs to look for apoptosis and necrosis respectively. […] MIN6 cells treated with 5 mM H2O2 for 3 hrs were used as a positive control (FIG. 4).

OAT transporter = conditions: 5 mg/kg CMPF co-administered with 150 mg/kg probenecid; cited from earlier work
mice = test: Probenecid IP twice daily for 3 days in mice; format: in vivo
Experimental: Mice were injected IP with 150 mg/kg probenecid twice daily for 3 days as previously described (Baudoux et al., 2012).

[2] = 150 mg/kg IP twice daily for 3 days

SMILES: Nc1ccc(C(=O)NCC(=O)O)cc1 [PAH, p-aminohippurate]
- insulin secretion of CMPF-treated islets (CD1 mouse islets; 50 μM): no effect

SMILES: CC1(C)S[C@@H]2[C@H](NC(=O)Cc3ccccc3)C(=O)N2[C@H]1C(=O)O [PCG, benzylpenicillin]
- CMPF secretion prevented (OAT3): 65-75%
- insulin secretion, inhibitor alone (CD1 mouse islets; 300 uM): no significant effect
- effect of 200 uM CMPF on insulin secretion under high glucose (CD1 mouse islets; 300 uM, 3 hour pre-treatment, then 24 hours with CMPF): inhibited the effect of CMPF
- insulin content of CMPF-treated islets (CD1 mouse islets; 300 μM, to control levels): rescue

SMILES: CC(=O)N[C@@H](CS)C(=O)O [NAC, N-Acetyl-Cysteine, reference compound]
- CMPF-induced translocation of FOXO1 [1]: prevented
- CMPF-induced translocation of PDX1 [1]: prevented
- insulin secretion (GSIS) in CMPF-treated islets (primary murine islets): rescued
- CMPF-induced increase in ROS production (mouse islets): inhibited
- insulin content in CMPF-treated islets (murine islets): rescued

SMILES: OO [H2O2, reference compound]
- Annexin V and propidium iodide staining (positive control) (MIN6 cells): only observed in the positive control

SMILES: CCCN(CCC)S(=O)(=O)c1ccc(C(=O)O)cc1 [probenecid]
- plasma clearance of CMPF (OAT transporter): significantly reduced
- body weight (mice; [2]): No differences
- fasting blood glucose (mice; [2]): No differences
- plasma uric acid concentrations (mice; 150 mg/kg twice daily): significantly reduced
- glucose tolerance (2 g/kg OGTT) (mice; on the 4th day): no significant difference
- effect of 200 uM CMPF on high-glucose and KCl-stimulated insulin secretion (CD1 mouse islets; 1 mM, 3 hour pre-treatment, then 24 hours with CMPF): completely abolished the effect of CMPF
- GSIS, inhibitor alone vs vehicle (CD1 mouse islets; 1 mM, 27 hours): no effect
